Data from a melting point compilation (Tetko et al.; mined from patent text by program, amines drawn as free bases though some values may be those of a salt).

| melting point | Structure (SMILES) |
| --- | --- |
| 200 to 202 °C | COC(=O)c1ccccc1S(=O)(=O)NC(=O)c1ccc2c(C)cc(C)nn12 |
| 90 to 91 °C | CC(=O)N1CCc2cc(C(=O)CCCCCl)ccc21 |
| 139 to 140 °C | CCOC(=O)C1CCC2(CCN(S(=O)(=O)c3ccc(C)cc3)c3ccccc3C2)C1O (stereo unspecified) |
| 92 to 93.5 °C | CCOC(=O)Cc1cc(C)c(C(=O)c2ccc(Cl)c(Cl)c2)n1C |
| 185 to 188 °C | CCc1c(CC)n(Cc2ccccc2Cl)c2cc(C(N)=O)ccc12 |
| 60 to 61 °C | CCCNC(=O)NCC1CCCCC1 |
| 193 to 194 °C | Cc1c(Cl)ccc(N(C)C(=O)CN2C(=O)c3ccccc3C2=O)c1Cl |
| 223 to 224 °C | COc1cc(N)c(Cl)cc1C(=O)NN1CCN(Cc2ccsc2)CC1 |
| 112 to 114 °C | CC(=O)C(=Cc1ccc(O)c(C(=O)O)c1)C(C)=O |
| 126 °C | CC(=O)N1CCN(c2cccc(-n3cnc4cc(C(C)O)ccc43)c2)CC1 (stereo unspecified) |
| 202 to 203 °C | CCOC(=O)c1cc2c(OC)cc3c(c2[nH]1)CCCC3 |
| 71 to 73 °C | CCCNC(=S)n1nc(Oc2c(Cl)cc(C(F)(F)F)cc2Cl)cc1C |
| 217 to 219 °C | Cc1ccc2c(c1)C1=NNC(=O)CC1CS2 (stereo unspecified) |
| > 110 °C | CCCCC(=O)Nc1ccc(Cl)c(-n2nc(CCCC)c(Cc3ccc(-c4ccccc4S(=O)(=O)NC(=O)c4ccccc4Cl)cc3)c2C(=O)O)c1 |
| > 275 °C | CC(C)c1ccc(CNc2ccc(S(=O)(=O)O)cc2)cc1 |
| 262 to 263 °C | COc1cccc(-c2[nH]c(-c3ccc(N)cc3)nc2C(=O)Nc2nccs2)c1 |
| 316 to 318 °C | COc1cc2c(O)c(S(=O)(=O)N(C)C)cnc2cc1Cl |
| 80 to 81 °C | CC(C)CNC(=O)C=CC=CCCCCCCCOc1cccc(Cl)n1 |
| 68 to 69 °C | COC(=O)c1cccc(Oc2cccc(Br)n2)c1 |
| 231 to 234 °C | N#Cc1ccc(Nn2cnnc2)cc1-c1ccc(F)cc1 |
| 67 to 68 °C | CCC(=O)CCCCCCC(=O)c1ccc(OCc2ccccc2)c(OCc2ccccc2)c1 |
| 108 to 112 °C | CC(C)(COc1ccc([N+](=O)[O-])cc1)N1CC(COc2cccc(Cl)c2)OC1=O (stereo unspecified) |
| 80 to 110 °C | COc1ccccc1OC(c1ccccc1)C(O)CN (stereo unspecified) |
| 94 to 110 °C | COc1cc2c(cc1Nc1ncc(F)c(Nc3ccc(N4CCOCC4)cc3OC)n1)CCN(CC(=O)OC(C)C)CC2 |
| 92 to 94 °C | O=C(Cn1c(-c2ccccc2)ncc(NS(=O)(=O)c2ccccc2)c1=O)NC(Cc1ccccc1)C(=O)C(F)(F)F (stereo unspecified) |

| melting point | Structure (SMILES) |
| --- | --- |
| 228 °C | Nc1nc(Oc2ccccc2)c2nc[nH]c2n1 |
| 196 to 197 °C | Cc1ccc(-c2nc(N)nc(N)c2[N+](=O)[O-])o1 |
| 187 °C | OC(Cn1cncn1)(Cn1ncnc1S)c1ccc(F)cc1F (stereo unspecified) |
| 130 to 134 °C | Cc1cc(Cl)ccc1OCC(=O)N1Cc2ccc(C(=O)CCc3ccccc3)n2Cc2ccccc21 |
| 84 to 86 °C | CCN(C(=O)N1CCN(c2cc(C)cc(C)c2)CC1)c1cc2ccccc2nc1OC |
| 87 °C | ClC(Cl)=CCOc1cc(Cl)c(OCc2cccc(Cl)c2)c(Cl)c1 |
| 151 to 152 °C | O=C(NCCn1cncn1)c1sc2ccccc2c1Cl |
| 253 to 254 °C | CSc1nc2cc(Cl)c(S(N)(=O)=O)cc2[nH]1 |
| 98 to 100 °C | COc1cc(Cn2cccc3ncnc2-3)ccc1C(=O)N(C(C)C)C1CCCCC1 |
| 118 to 120 °C | COc1ccc(C)cc1NC(=O)Nc1ccc(N2CCCN(C(=O)Nc3ccc(OCCO)cc3C(F)(F)F)CC2)cc1 |
| > 300 °C | COCn1ncc2cc(-c3nnc(S)o3)ccc21 |
| 130 to 132 °C | CC(C)(Nc1ccccc1N)C(=O)O |
| 193 to 195 °C | CC(C)c1ccc(-c2ncc(-c3cccc(C(=O)O)c3)o2)cc1 |
| 202 to 203 °C | NS(=O)(=O)c1ccc(-c2ccco2)cc1 |
| 215 °C | CCC1c2nc[nH]c2CCN1C(=S)NC(C)C (stereo unspecified) |
| 198 to 199 °C | O=S(=O)(c1ccc(O)cc1)c1ccc(O)c2ccccc12 |
| 46 to 48 °C | CC(C)(CO)c1ccc(Cl)cc1 |
| 160 °C | CC(=O)Nc1ccc(OCc2nc3ccccc3o2)cc1C |
| 184 to 185 °C | CCOC(=O)c1ccc(C(=O)Nc2ccc3c(c2)CCCC(=O)N3C)cc1 |
| 65 °C | CSc1nnc(-c2snnc2C)o1 |
| 142 to 143 °C | Cc1c2cccc(-c3cccc(C(=O)NCCO)c3)c2nn1Cc1cccc(C(F)(F)F)c1 |
| 115 to 117 °C | COc1cc(C(C)C)c(NC(=O)CN2CCN(CCSc3nc4ccccc4o3)CC2)c(C(C)C)c1 |
| 116 to 117 °C | CC(Cc1ccccc1)(C(=O)NO)S(=O)(=O)c1cccs1 (stereo unspecified) |
| 167 to 169 °C | COc1ccc(C(=O)Nc2c(Cl)cncc2Cl)cc1OC1CCCC1F (stereo unspecified) |

Second part, the compound before the results:

| Structure (SMILES) | melting point |
| --- | --- |
| Cn1ccc2ccc(OCc3ccccc3)cc21 | 79 °C |
| CN1CCC(OC2c3ccccc3CCn3cc(I)nc32)CC1 (stereo unspecified) | 126 °C |
| N#CC1(c2ccc([N+](=O)[O-])cc2)CCCC1 | 76 to 77 °C |
| CN(C)CCCC#Cc1cnc(NC(=O)OC(C)(C)C)nc1 | 119 to 120 °C |
| Nc1cc(Cl)c(Oc2ccc(S(=O)(=O)c3ccc(Cl)cc3)cc2)c(Cl)c1 | 186 to 187 °C |
| CC12CCC3=C4CCC(=O)C=C4CCC3C1C=CC2=O (stereo unspecified) | 182 to 183 °C |
| O=C(NC1CCN(CCCCl)CC1)c1ccccc1 | 145 to 147 °C |
| CS(=O)(=O)Nc1cc([C@@H](O)CNC2CCN(c3ccc(CCC(=O)O)cc3)CC2)ccc1O | 130 to 133 °C |
| C/C(=C\C=C(c1ccccc1)c1ccccc1)C(=O)Oc1ccc([N+](=O)[O-])cc1 | 139 to 141 °C |
| ClCc1ccc(CCl)o1 | 27 to 28 °C |
| O=C1Nc2ccccc2N(C(=O)CNCCc2ccccc2)C2CCC(Cc3ccccc3)C12 (stereo unspecified) | 108 to 109 °C |
| CCCCN(C)c1nsc(NC(=O)NC)c1C#N | 109 to 110 °C |
| CC1=NN(c2ccc(Cl)cc2)C(c2ccc(NC(=O)c3cccc(I)c3C(=O)NC(C)C)c(C)c2)C1 (stereo unspecified) | 222 to 224 °C |
| O=C(O)CC1CCCC2CC(=O)NC12 (stereo unspecified) | 238 to 240 °C |
| O=C1CCCC12CCn1c(cc3ccccc31)C2 (stereo unspecified) | 128 to 130 °C |
| COc1ccc(C(C)(O)CO)cc1CN[C@H]1C2CCN(CC2)[C@H]1C(c1ccccc1)c1ccccc1 (stereo partly specified) | 65.5 to 82.8 °C |
| CCOC(=O)c1ccc2nnc(-c3ncc([N+](=O)[O-])n3C)n2n1 | 180 to 182 °C |
| COC(=O)[C@H](CO)NC(=O)[C@H](CS)NC(C)=O | 127 to 128 °C |
| CCCCCCCCCCCCOc1ccc(-c2cc3ccccc3[nH]2)cc1OC | 104 °C |
| CC(C(=O)O)c1ccc2cc(OCCCCCCc3cccc(O)c3O)ccc2c1 (stereo unspecified) | 136 to 139 °C |
| CN1C(=O)C(CC(=O)Nc2ccc(Cl)cc2)N=C(c2ccccc2)c2ccccc21 (stereo unspecified) | 238 to 240 °C |
| CCCCOC(=O)C(COC(C)(C)C)NC(=O)c1ccc2c(Cl)cnc(NC(=N)N)c2c1 (racemic) | 215 to 219 °C |
| CNC(=O)N1CC(Oc2cccc(C(F)(F)F)c2)C1 | 145 to 147 °C |
| COC(=O)C1Cc2cccc(OC)c2N1S(=O)(=O)c1ccc(I)cc1 (stereo unspecified) | 161 °C |
| O=C(O)c1ccc(NCCCc2ccccc2)cn1 | 167 to 169 °C |
| Cc1nc2n(C)ccn2c(=O)c1CCN1CCC(Nc2nc3ccccc3[nH]2)CC1 | 230 °C |

| Structure (SMILES) | melting point |
| --- | --- |
| CN(C(=O)N1Cc2ncn(Cc3ccccc3)c2CC1C(=O)O)c1ccccc1 (stereo unspecified) | 220 to 222 °C |
| COc1ccc(C2(C#Cc3cccc(NC(C)=O)c3)CCCC(=O)C2)cc1OC1CCCC1 (stereo unspecified) | 58 to 60 °C |
| Cc1cc(O)n2nc(CN)nc2n1 | 204 to 207 °C |
| CCCc1nc(C)n2nc(S(=O)(=O)N(C)C)nc2c1Cc1ccc(-c2ccccc2C#N)cc1 | 158 °C |
| C1=C[C@H]2CCN(CC3CC3)C[C@@H]2Cc2ccccc21 (relative stereo) | 157 to 159 °C |
| CC(C)C(O)CN1N=C(c2ccc(Cl)cc2)CCC1=O (stereo unspecified) | 90 to 92 °C |
| COc1ccc(C(=O)Nc2ccccc2)cc1Nc1cc(Cl)cc(Cl)c1 | 207 to 208 °C |
| O=c1[nH]c(NCCCn2ccnc2)nc2c1ncn2C1CC(O)C(CO)O1 (stereo unspecified) | 245 to 247 °C |
| Clc1ccc(-c2cc(C3CC3)nc(Cl)n2)cc1 | 70 to 72 °C |
| CCOC(=O)c1cc2c3c(ccc2[nH]1)OC[C@H](CO)O3 | 152 to 153 °C |
| COC(=O)C(Cc1ccc(OCCc2nc(-c3ccccc3)oc2C)cc1)C(=O)N(C)C (stereo unspecified) | 114 to 115 °C |
| Cc1noc2cc(N3CCOCC3)ccc12 | 138 to 140 °C |
| N#Cc1ccc(C(=O)N2CCNC2=Nc2c(Cl)cccc2Cl)cc1 | 208 to 210 °C |
| CCOC(=O)[C@@H](O)[C@@H]1OC(=O)c2cc(OC)c(OCc3ccccc3)cc21 | 138 to 140 °C |
| COc1cc(-c2c(Cl)c(CN3CCCC3=O)nc3sc4c(c23)CCN(Cc2ccccc2)C4)ccc1O | 190 to 191 °C |
| Cc1[nH]c2cc(C(=O)c3ccccc3)ccc2c1/C=C/C(=O)c1ccncc1 | 267 to 270 °C |
| CCc1nc2c(cnn2CC)c(NC2CCOCC2)c1CNC(=O)c1cccc(C(=O)NCc2ccc(Cl)c(-c3cccc(CN4CCNC(C)C4)c3)c2)c1 (stereo unspecified) | 117 to 120 °C |
| Cc1ccc(O)c(C(=O)C2CC2)c1 | 66 to 68 °C |
| COc1cc(C(=O)CBr)cc(OC)c1OC(C)=O | 124 to 126 °C |
| CC(C)(C)OC(=O)C[C@H](NC(=O)CNC(=O)c1csc(NC(=O)NCc2ccccc2)n1)C(=O)OC(C)(C)C | 111 to 114 °C |
| CCOc1cccc(-c2ccnc3c(C(=O)c4cccs4)cnn23)c1 | 146 to 148 °C |
| C#CCOc1cc(C(=O)O)cc([N+](=O)[O-])c1C(=O)c1ccccc1 | 169 to 172 °C |
| O=C(Nc1cccc(C(F)(F)F)c1)Nc1ccc(Oc2ncnc3cc[nH]c23)cc1Cl | 316 to 319 °C |
| CCCc1nc(-c2ccc(OCCCn3ccnc3)cc2)no1 | 57 to 58 °C |
| O=C(NCc1ccc(F)cc1)c1cn(N2CCOCC2)c2ccc(CN3CCOCC3)cc2c1=O | 165 to 167 °C |
| CCc1c(N)c(C)cc(Cc2cc(C)c(N)c(CC)c2Cl)c1Cl | 143 to 148 °C |
